Values of other authors in patent US20080113949A1, “Use of dipyridamole in combination with acetylsalicylic acid and an angiotensin II antagonist for stroke prevention” (priority 2003, published 2008).

Settings: clinical study ESPS-2; compared with aspirin

OCCN(CCO)c1nc(N2CCCCC2)c2nc(N(CCO)CCO)nc(N3CCCCC3)c2n1 [dipyridamole, 2,6-bis(diethanolamino)-4,8-dipiperidino-pyrimido[5,4-d]pyrimidine]
reduction of stroke risk: as effective as low-dose aspirin
